Results published in patent US20090060871A1, “ADMINISTRATION OF AGONIST-ANTAGONIST IN OPIOID-DEPENDENT PATIENTS” (priority 2006, published 2009).
Counter-ions that a name gives are not always drawn.

How the values were obtained:
[1] = test system: IDU (injectable drug users); assay: Pilot study of Nalbuphine administration to IDU (injectable drug users), Example 8A; format: in vivo, human
Description: A pilot study was initiated to evaluate treatment with Nalbuphine (agonist-antagonist) in the context of HIV prevention, treatment and care interventions. The first pilot study of the effects of Nalbuphine administration to IDU (injectable drug users) started at the 8th of August 2006 in Moscow. It is still being conducted on outpatient basis.
Duration of individual treatment varied from patient to patient (from 10 days to 180 days) depending on patient's condition, life-style, substance abuse history, etc. The frequency of administration varied from 20 mg per patient bid (initially) to 20 mg per patient per week (after 30 days).
The objective of the study is to compare this method with the other methods of drug treatment typical for Russia, and to measure the effects of out-patient Nalbuphine administration using following criteria:
The clinical trial included 19 clients, all with simultaneous codeine addiction, 7 patients living with AIDS, 4 being multiple substance users. In all cases, the patient was a difficult case (5-11 years of heroin abuse). 3 of the patients had very high (3-5 g a day) doses of heroin abuse.
All patients were between 18-50 years old, diagnosed with opiate abuse (in some cases in combination with other substances). They were admitted to the study after three days of opiate abstinence.
Patients with psychiatric, oncological, diabetic conditions, chronic kidney illnesses, and pregnancy were excluded from the study.

[2] = test system: opioid-dependent patients; assay: Study of 28 patients who received Nalbuphine for up to 6 months, Example 9A; format: in vivo, human
Description: The results of a study of 28 patients who received Nalbuphine for up to 6 months are as follows.

opioid-dependent patient = assay: Clinical case reports: nalbuphine 2 cc IM twice a day in opioid-dependent patients (Examples 1A-7A); format: in vivo, human
[3] = test system: HIV-infected, opioid-dependent patient; assay: Average adherence to ARV regimen during nalbuphine administration; format: in vivo, human
Experimental: Compliance with a treatment regimen and in particular to an ARV regimen is determined using an “average adherence” value calculated using the formula: […]
where A is the number of tablets or gel capsules required by the protocol to be administered to a patient over four weeks; and B is the number of tablets or gel capsules prescribed but actually not taken by a patient over the same period of time.

[4] = in vivo; cited from earlier work
[5] = water; cited from earlier work
[6] = Example 1A, M., 2 cc IM twice a day for 48 days
[7] = Example 3A, N., 2 cc IM twice a day for 30 days

Oc1ccc2c3c1OC1[C@@H](O)CCC4(O)[C@@H](C2)N(CC2CCC2)CC[C@]314 (stereo partly drawn) [nalbuphine, 17-(cyclobutylmethyl)-4,5α-epoxymorphinane-3,6α-14-triol]
side effects or drug-drug interactions ([1]; 19 clients): No side effects or drug-drug interactions were observed
involvement/adherence to HIV treatments ([1]; all HIV-positive patients): higher involvement/adherence
quality of life ([1]; all patients): improved quality of life
patients who stopped heroin and codeine consumption ([1]; of 19 clients, 20 mg bid initially to 20 mg per week, 10 to 180 days, outpatient): 18 patients
correlation between administrated dose and heroin consumption ([2]; 28 patients): inverse correlation
overdose, side effects or new infections associated with injectable drugs ([2]; 28 patients): no observed instances of overdose, side effects or new infections
quality of life ([2]; 28 patients): improved
people staying clean (periodic urine tests for opiates) while on therapy ([2]; 28 patients, up to 6 months): two thirds
reduction of total heroin and other opiate consumption ([2]; 28 patients, up to 6 months): up to 75%
cravings for drug ([2]; all patients): clear reduction of cravings for drug
compliance (adherence) to ARVT ([2]; patients already receiving ARVT): nearly perfect compliance (adherence)
aggravation of opportunistic infections or HCV (opioid-dependent patient; [6]): No aggravation
craving (opioid-dependent patient; [6]): profound decrease in craving
desire for drug use (opioid-dependent patient; Example 2A, D., 2 cc IM twice a day for 52 days): denies desire for drug use
aggravation of opportunistic infections or HCV (opioid-dependent patient; Example 3A, N.): No aggravation
cravings for drugs (opioid-dependent patient; [7]): cravings for drugs decreased
pain (chronic osteomyelitis) (opioid-dependent patient; [7]): pain relief
aggravation of opportunistic infections or HCV (opioid-dependent patient; Example 5A, V.): No aggravation
alcohol problems (opioid-dependent patient; Example 5A, V.): problems with alcohol persist
aggravation of opportunistic infections or HCV (opioid-dependent patient; Example 6A, L.): No aggravation
drug cravings (opioid-dependent patient; Example 6A, L.): drug cravings decreased
attempts of suicide (opioid-dependent patient; Example 6A, L., multiple earlier attempts): No attempts of suicide
Average adherence to ART during April ([3]; Example 3A, N., 98% in January-March 2006 before nalbuphine): 100%
Average adherence to ART during April ([3]; Example 4A, S., male, Stocrin+Combivir, 76% in January-March 2006 before nalbuphine): 97%
Average adherence to ART during April ([3]; Example 5A, V., Stocrin and Combivir, 70% in January-March 2006 before nalbuphine): 95%
Average adherence to ART during April ([3]; Example 6A, L., Efavirenz and Combivir, 68% in January-March 2006 before nalbuphine): 93%
Average adherence to ART during April ([3]; Example 7A, S., female, 98% in January-March 2006 before nalbuphine): 93%

Oc1ccc2c3c1O[C@H]1[C@@H](O)CCC4(O)C(C2)N(CC2CCC2)CCC314 (stereo partly drawn) [nalbuphine hydrochloride, 17-(cyclobutylmethyl)-4,5α-epoxymorphinan-3,6α-14-triol hydrochloride]
plasma half life [4]: about five
solubility [5]: Water-soluble
